Key:
[1] = molecular target: T1, isolated recombinant JAK1 kinase domain (Homo sapiens, UniProt P23458); assay: JAK1 enzyme assay (Caliper LabChip, Ki); type: biochemical; details: recombinant JAK1 kinase domain, 25 μM ATP
T1 construct: The activity of the isolated recombinant JAK1 and JAK2 kinase domain was measured
In short: (§1)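 Recombinant JAK1 or JAK2 kinase domain phosphorylating a 5-carboxyfluorescein-labelled JAK3-derived peptide, 30 min at 22° C, stopped with EDTA. Phosphorylated fraction of substrate quantified by Caliper LabChip microfluidic separation. Ki from Morrison tight-binding model corrected for ATP competition (Ki=Ki,app/(1+[ATP]/Km,app)).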

[2] = tested on: JAK1-dependent STAT6 phosphorylation downstream of IL-13 stimulation in BEAS-2B human bronchial epithelial cells; assay: JAK1 pathway assay in BEAS-2B cells (IL-13 stimulated STAT6 phosphorylation, MSD); type: cell-based; details: read-out: P-STAT6 BEAS2B + IL13 IC50
In short: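 BEAS-2B human bronchial epithelial cells, plated the day before in complete growth medium, were preincubated with compound for 1 hr at 37° C (0.2% DMSO final), then stimulated with IL-13 at its EC90 for 15 min. STAT6 phosphorylation in lysates was read by MSD; EC50 was taken as 50% inhibition versus DMSO control.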

[3] = molecular target: T2, isolated recombinant JAK2 kinase domain (Homo sapiens, UniProt O60674); assay: JAK2 enzyme assay (Caliper LabChip, Ki); type: biochemical; details: 25 μM ATP
T2 construct: The activity of the isolated recombinant JAK1 and JAK2 kinase domain was measured
In short: as §1

T2 sequence (O60674 849-1124 limits assumed): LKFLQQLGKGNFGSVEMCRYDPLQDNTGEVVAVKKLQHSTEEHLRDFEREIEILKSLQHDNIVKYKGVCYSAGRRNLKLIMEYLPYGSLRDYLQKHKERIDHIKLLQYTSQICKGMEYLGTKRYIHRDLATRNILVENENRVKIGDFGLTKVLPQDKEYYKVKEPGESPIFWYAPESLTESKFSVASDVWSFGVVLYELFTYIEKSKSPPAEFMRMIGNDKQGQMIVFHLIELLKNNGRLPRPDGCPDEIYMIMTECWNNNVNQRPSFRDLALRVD
T1 sequence (P23458 875-1153 limits assumed): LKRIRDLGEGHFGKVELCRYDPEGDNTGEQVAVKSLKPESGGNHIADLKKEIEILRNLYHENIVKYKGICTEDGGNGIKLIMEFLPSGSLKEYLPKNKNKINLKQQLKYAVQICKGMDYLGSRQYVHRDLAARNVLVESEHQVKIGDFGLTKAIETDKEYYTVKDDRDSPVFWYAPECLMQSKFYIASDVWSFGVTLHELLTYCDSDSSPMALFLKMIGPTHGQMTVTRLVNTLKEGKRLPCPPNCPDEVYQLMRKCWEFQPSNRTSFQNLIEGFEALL

Row | SMILES | Ki [1] [pM] | Ki [3] [pM] | IC50 [2] [pM]
1 | CSc1ccc(OC(F)F)c(-c2nn(CC(=O)N3CCC(N4CC5CC(C4)O5)CC3)cc2NC(=O)c2cnn3cccnc23)c1 [Example 75, N-[3-[2-(difluoromethoxy)-5-methylsulfanyl-phenyl]-1-[2-[4-(6-oxa-3-azabicyclo[3.1.1]heptan-3-yl)-1-piperidyl]-2-oxo-ethyl]pyrazol-4-yl]pyrazolo[1,5-a]pyrimidine-3-carboxamide] | 280 | 380 | 12000
2 | CSc1ccc(OC(F)F)c(-c2nn(C3(CC#N)CN(C)C3)cc2NC(=O)c2cnn3cccnc23)c1 [Example 76, N-(1-(3-(cyanomethyl)-1-methylazetidin-3-yl)-3-(2-(difluoromethoxy)-5-(methylthio)phenyl)-1H-pyrazol-4-yl)pyrazolo[1,5-a]pyrimidine-3-carboxamide] | 1400 | 1000 | 60000
3 | CSc1ccc(OC(F)F)c(-c2nn(C3(CC#N)CNC3)cc2NC(=O)c2cnn3cccnc23)c1 [Example 77, N-(1-(3-(cyanomethyl)azetidin-3-yl)-3-(2-(difluoromethoxy)-5-(methylthio)phenyl)-1H-pyrazol-4-yl)pyrazolo[1,5-a]pyrimidine-3-carboxamide] | 470 | 330 | 27000
4 | CSc1ccc(OC(F)F)c(-c2nn(C3(CC#N)CN(C(=O)OC(C)(C)C)C3)cc2NC(=O)c2cnn3cccnc23)c1 [Example 78, tert-butyl 3-(cyanomethyl)-3-[3-[2-(difluoromethoxy)-5-methylsulfanyl-phenyl]-4-(pyrazolo[1,5-a]pyrimidine-3-carbonylamino)pyrazol-1-yl]azetidine-1-carboxylate] | 920 | 720 | 69000

More lines, main results first:

Row | Ki [1] [pM] | Ki [3] [pM] | SMILES | IC50 [2] [pM]
5 | 400 | 360 | CSc1ccc(OC(F)F)c(-c2nn(CC(=O)N3CCC(N4CCn5cncc5C4)CC3)cc2NC(=O)c2cnn3cccnc23)c1 [Example 72, N-[3-[2-(difluoromethoxy)-5-methylsulfanyl-phenyl]-1-[2-[4-(6,8-dihydro-5H-imidazo[1,5-a]pyrazin-7-yl)-1-piperidyl]-2-oxo-ethyl]pyrazol-4-yl]pyrazolo[1,5-a]pyrimidine-3-carboxamide] | 110000
6 | 230 | 250 | CSc1ccc(OC(F)F)c(-c2nn(CC(=O)N3CCC(N4CCn5ccnc5C4)CC3)cc2NC(=O)c2cnn3cccnc23)c1 [Example 73, N-[3-[2-(difluoromethoxy)-5-methylsulfanyl-phenyl]-1-[2-[4-(6,8-dihydro-5H-imidazo[1,2-a]pyrazin-7-yl)-1-piperidyl]-2-oxo-ethyl]pyrazol-4-yl]pyrazolo[1,5-a]pyrimidine-3-carboxamide] | 39000
7 | 300 | 580 | CSc1ccc(OC(F)F)c(-c2nn(CC(=O)N3CCC(CN4CCN(C(=O)CN(C)C)CC4)CC3)cc2NC(=O)c2cnn3cccnc23)c1 [Example 74, N-[3-[2-(difluoromethoxy)-5-methylsulfanyl-phenyl]-1-[2-[4-[[4-[2-(dimethylamino)acetyl]piperazin-1-yl]methyl]-1-piperidyl]-2-oxo-ethyl]pyrazol-4-yl]pyrazolo[1,5-a]pyrimidine-3-carboxamide] | 50000
8 | 390 | 440 | CSc1ccc(OC(F)F)c(-c2nn(CC(=O)N3CCC(N4CCn5nccc5C4)CC3)cc2NC(=O)c2cnn3cccnc23)c1 [Example 79, N-[3-[2-(difluoromethoxy)-5-methylsulfanyl-phenyl]-1-[2-[4-(6,7-dihydro-4H-pyrazolo[1,5-a]pyrazin-5-yl)-1-piperidyl]-2-oxo-ethyl]pyrazol-4-yl]pyrazolo[1,5-a]pyrimidine-3-carboxamide] | 35000

From patent publication US20180265515A1 (Genentech, Inc., priority 2015, published 2018)
